From PubChem BioAssay AID1963827 (Molecular Pharmacology Branch, DTP, NCI, 2024)

Tested on: 994946-033-R-J1-PDC complex spheroid viability
Experiment: Anticancer human tumor 994946-033-R-J1-PDC patient-derived melanoma cell line growth inhibition [POLQ]
Conditions: for IC50: curve of first compound; for viability, T/C: stronger effect = lower value
Procedure, shortened: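 Patient-derived tumour cells were co-cultured with HUVEC and mesenchymal stem cells as multicellular spheroids at 37 °C. They were treated with POLQ inhibitors (novobiocin, ART-558, RP6685) alone or combined with other agents. Top concentrations were at or near clinical Cmax (otherwise 10 microM; SN-38 at 1 microM), decreasing in half-log steps.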

[1] = second compound 0.0316 µM, first compound 0.0316 µM
[2] = second compound 0.0316 µM, first compound 0.1 µM
[3] = second compound 0.0316 µM, first compound 0.316 µM
[4] = second compound 0.0316 µM, first compound 1 µM
[5] = second compound 0.0316 µM, first compound 3.16 µM
[6] = second compound 0.0316 µM, first compound 10 µM
[7] = second compound 0.1 µM, first compound 0.0316 µM
[8] = second compound 0.1 µM, first compound 0.1 µM
[9] = second compound 0.1 µM, first compound 0.316 µM
[10] = second compound 0.1 µM, first compound 1 µM
[11] = second compound 0.1 µM, first compound 3.16 µM
[12] = second compound 0.1 µM, first compound 10 µM
[13] = second compound 0.316 µM, first compound 0.0316 µM
[14] = second compound 0.316 µM, first compound 0.1 µM
[15] = second compound 0.316 µM, first compound 0.316 µM
[16] = second compound 0.316 µM, first compound 1 µM
[17] = second compound 0.316 µM, first compound 3.16 µM
[18] = second compound 0.316 µM, first compound 10 µM
[19] = second compound 1 µM, first compound 0.0316 µM
[20] = second compound 1 µM, first compound 0.1 µM
[21] = second compound 1 µM, first compound 0.316 µM
[22] = second compound 1 µM, first compound 1 µM
[23] = second compound 1 µM, first compound 3.16 µM
[24] = second compound 1 µM, first compound 10 µM
[25] = second compound 3.16 µM, first compound 0.0316 µM
[26] = second compound 3.16 µM, first compound 0.1 µM
[27] = second compound 3.16 µM, first compound 0.316 µM
[28] = second compound 3.16 µM, first compound 1 µM
[29] = second compound 3.16 µM, first compound 3.16 µM
[30] = second compound 3.16 µM, first compound 10 µM
[31] = second compound 10 µM, first compound 0.0316 µM
[32] = second compound 10 µM, first compound 0.1 µM
[33] = second compound 10 µM, first compound 0.316 µM
[34] = second compound 10 µM, first compound 1 µM
[35] = second compound 10 µM, first compound 3.16 µM
[36] = second compound 10 µM, first compound 10 µM
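Further: spheroids exposed to drugs for 7 days.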
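Wherever viability, T/C is given: 100% = DMSO vehicle treated spheroids.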

## COc1ccc([C@@H](O)c2cc(-c3ncnc4cc(N5CCOCC5)ccc34)c(F)cc2Cl)nn1 + Cc1cccc(N(C)C(=O)C2C(O)CCN2c2nc(C)cc(C(F)(F)F)c2C#N)c1
Second compound 0.0316 µM
  IC50: 4.06 µM
Second compound 0.1 µM
  IC50: 6.54 µM
Second compound 0.316 µM
  IC50: 2.25 µM
Second compound 1 µM
  IC50: 6.16 µM
Second compound 3.16 µM
  IC50: 2.65 µM
Second compound 10 µM
  IC50: 6.2 µM
[1]
  viability, T/C: 108%
[2]
  viability, T/C: 95.1%
[3]
  viability, T/C: 106%
[4]
  viability, T/C: 64.1%
[5]
  viability, T/C: 60.7%
[6]
  viability, T/C: 32.5%
[7]
  viability, T/C: 90.9%
[8]
  viability, T/C: 105%
[9]
  viability, T/C: 93.3%
[10]
  viability, T/C: 78.5%
[11]
  viability, T/C: 71.6%
[12]
  viability, T/C: 38.4%
[13]
  viability, T/C: 118%
[14]
  viability, T/C: 94.1%
[15]
  viability, T/C: 103%
[16]
  viability, T/C: 60.4%
[17]
  viability, T/C: 45.6%
[18]
  viability, T/C: 45.1%
[19]
  viability, T/C: 104%
[20]
  viability, T/C: 96.6%
[21]
  viability, T/C: 82%
[22]
  viability, T/C: 105%
[23]
  viability, T/C: 60.9%
[24]
  viability, T/C: 42.1%
[25]
  viability, T/C: 115%
[26]
  viability, T/C: 125%
[27]
  viability, T/C: 101%
[28]
  viability, T/C: 60.5%
[29]
  viability, T/C: 56.8%
[30]
  viability, T/C: 38.6%
[31]
  viability, T/C: 74.9%
[32]
  viability, T/C: 101%
[33]
  viability, T/C: 60.3%
[34]
  viability, T/C: 76.6%
[35]
  viability, T/C: 62.7%
[36]
  viability, T/C: 41.1%

## CCc1c2c(nc3ccc(O)cc13)-c1cc3c(c(=O)n1C2)COC(=O)[C@]3(O)CC + Cc1cccc(N(C)C(=O)C2C(O)CCN2c2nc(C)cc(C(F)(F)F)c2C#N)c1
Second compound 0.0316 µM
  IC50: < 0.00316 µM
Second compound 0.1 µM
  IC50: < 0.00316 µM
Second compound 0.316 µM
  IC50: < 0.00316 µM
Second compound 1 µM
  IC50: < 0.00316 µM
Second compound 3.16 µM
  IC50: < 0.00316 µM
Second compound 10 µM
  IC50: < 0.00316 µM
Second compound 0.0316 µM, first compound 0.00316 µM
  viability, T/C: 17.5%
Second compound 0.0316 µM, first compound 0.01 µM
  viability, T/C: 10.9%
[1]
  viability, T/C: 5%
[2]
  viability, T/C: 5.25%
[3]
  viability, T/C: 2.7%
[4]
  viability, T/C: 1.11%
Second compound 0.1 µM, first compound 0.00316 µM
  viability, T/C: 18.9%
Second compound 0.1 µM, first compound 0.01 µM
  viability, T/C: 10%
[7]
  viability, T/C: 7.4%
[8]
  viability, T/C: 5.26%
[9]
  viability, T/C: 3.12%
[10]
  viability, T/C: 0.8%
Second compound 0.316 µM, first compound 0.00316 µM
  viability, T/C: 18.6%
Second compound 0.316 µM, first compound 0.01 µM
  viability, T/C: 8.02%
[13]
  viability, T/C: 5.77%
[14]
  viability, T/C: 4.13%
[15]
  viability, T/C: 4.1%
[16]
  viability, T/C: 1.27%
Second compound 1 µM, first compound 0.00316 µM
  viability, T/C: 18.7%
Second compound 1 µM, first compound 0.01 µM
  viability, T/C: 8.88%
[19]
  viability, T/C: 5.58%
[20]
  viability, T/C: 7.75%
[21]
  viability, T/C: 3.43%
[22]
  viability, T/C: 1.3%
Second compound 3.16 µM, first compound 0.00316 µM
  viability, T/C: 26.8%
Second compound 3.16 µM, first compound 0.01 µM
  viability, T/C: 12%
[25]
  viability, T/C: 8.11%
[26]
  viability, T/C: 5.61%
[27]
  viability, T/C: 2.9%
[28]
  viability, T/C: 0.8%
Second compound 10 µM, first compound 0.00316 µM
  viability, T/C: 17.9%
Second compound 10 µM, first compound 0.01 µM
  viability, T/C: 9.1%
[31]
  viability, T/C: 5.89%
[32]
  viability, T/C: 4%
[33]
  viability, T/C: 2.6%
[34]
  viability, T/C: 0.66%

## CCCS(=O)(=O)Nc1ccc(F)c(C(=O)c2c[nH]c3ncc(-c4ccc(Cl)cc4)cc23)c1F + Cc1cccc(N(C)C(=O)C2C(O)CCN2c2nc(C)cc(C(F)(F)F)c2C#N)c1
Second compound 0.0316 µM
  IC50: 6.38 µM
Second compound 0.1 µM
  IC50: 6.17 µM
Second compound 0.316 µM
  IC50: 6.51 µM
Second compound 1 µM
  IC50: 4.95 µM
Second compound 3.16 µM
  IC50: 6.02 µM
Second compound 10 µM
  IC50: 5.54 µM
[1]
  viability, T/C: 67.5%
[2]
  viability, T/C: 102%
[3]
  viability, T/C: 94.3%
[4]
  viability, T/C: 81.1%
[5]
  viability, T/C: 85.7%
[6]
  viability, T/C: 27.1%
[7]
  viability, T/C: 91.3%
[8]
  viability, T/C: 110%
[9]
  viability, T/C: 67.4%
[10]
  viability, T/C: 115%
[11]
  viability, T/C: 88.2%
[12]
  viability, T/C: 22.4%
[13]
  viability, T/C: 78.7%
[14]
  viability, T/C: 101%
[15]
  viability, T/C: 95%
[16]
  viability, T/C: 104%
[17]
  viability, T/C: 99.3%
[18]
  viability, T/C: 22.9%
[19]
  viability, T/C: 64.8%
[20]
  viability, T/C: 71.4%
[21]
  viability, T/C: 81.6%
[22]
  viability, T/C: 93%
[23]
  viability, T/C: 63.7%
[24]
  viability, T/C: 20.9%
[25]
  viability, T/C: 103%
[26]
  viability, T/C: 76.3%
[27]
  viability, T/C: 97.3%
[28]
  viability, T/C: 84.9%
[29]
  viability, T/C: 95.3%
[30]
  viability, T/C: 17.4%
[31]
  viability, T/C: 88.4%
[32]
  viability, T/C: 84.6%
[33]
  viability, T/C: 112%
[34]
  viability, T/C: 95.6%
[35]
  viability, T/C: 80.9%
[36]
  viability, T/C: 17.1%
